We go through two substances from patent publication US20070037219A1, “Rhesus monkey bombesin receptor subtype-3 (brs-3), nucleotides encoding same, and uses thereof” (priority 2003, published 2007).

The target in assay [1] is rhesus monkey bombesin receptor subtype-3 (rhesus monkey) (UniProt Q6H2Y3). Kind of assay: cell-based or functional assay.
Assay [2] has as its system rhesus monkey BRS3 receptor. Kind of assay: Functional expression of rhesus monkey BRS3 in aequorin-expressing reporter cell line 293-AEQ17 (luminescence, fractional response). Format: cell-based. The settings on record: 293-AEQ17 cells transfected with rhesus monkey BRS3 plasmid, aequorin light emission, read-out: EC50 value for activation of the rhesus monkey BRS3 receptor. The protocol: Measurement of rhesus monkey BRS3 receptor expression in the aequorin-expressing stable reporter cell line 293-AEQ17 (Button et al., 1993. Cell Calcium 14: 663-671) was performed using a Luminoskan RT luminometer (Labsystems Inc., Gaithersburg, Md.) controlled by custom software written for a Macintosh PowerPC 6100. 293-AEQ17 cells (8×10^5 cells plated 18 hours before transfection in a T75 flask) were transfected with 22 μg of rhesus monkey BRS3 receptor plasmid DNA: 264 μg lipofectamine.
Following approximately 40 hours of expression, the apo-aequorin in the cells was charged for 4 hours with coelenterazine (10 μM) under reducing conditions (300 μM reduced glutathione) in ECB buffer (140 mM NaCl, 20 mM KCl, 20 mM HEPES-NaOH [pH=7.4], 5 MM glucose, 1 mM MgCl2, 1 mM CaCl2, 0.1 mg/ml bovine serum albumin). The cells were harvested, washed once in ECB medium and resuspended to 500,000 cells/ml. 100 μl of cell suspension (corresponding to 5×10^4 cells) was then injected into the test plate containing the BRS3 agonist peptide D-Tyr6-betaAla11-Phe13-Nle14]bombesin6-14, and the integrated light emission was recorded over 30 seconds, in 0.5-second units. 20 μL of lysis buffer (0.1% final Triton X-100 concentration) was then injected and the integrated light emission recorded over 10 seconds, in 0.5-second units. […]

Assay [3] relates to all three human bombesin receptor subtypes. Conditions: literature statement, Pradhan et al., Eur. J. Pharmacol. 343: 275-87 (1998); cited from earlier work.

rhesus monkey BRS3 receptor, sequence (as listed by the source): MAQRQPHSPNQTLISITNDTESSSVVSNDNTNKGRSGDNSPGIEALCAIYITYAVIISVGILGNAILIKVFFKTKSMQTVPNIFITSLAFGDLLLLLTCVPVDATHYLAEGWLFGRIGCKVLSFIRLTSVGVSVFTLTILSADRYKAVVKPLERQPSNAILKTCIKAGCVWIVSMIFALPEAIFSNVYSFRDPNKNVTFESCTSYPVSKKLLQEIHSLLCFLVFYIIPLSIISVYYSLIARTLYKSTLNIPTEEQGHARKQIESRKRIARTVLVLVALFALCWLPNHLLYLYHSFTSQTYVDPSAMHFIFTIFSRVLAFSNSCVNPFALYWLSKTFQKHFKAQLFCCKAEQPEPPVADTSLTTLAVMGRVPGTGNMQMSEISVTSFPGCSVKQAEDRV
rhesus monkey bombesin receptor subtype-3 (rhesus monkey), sequence (Q6H2Y3 whole entry): as the sequence (as listed by the source) above

On to “[D-Tyr6-betaAla11-Phe13-Nle14]bombesin(6-14) (peptide)”, for which, in assay [1], the EC50 value for activation (aequorin luminescence, fractional response, in transfected 293-AEQ17 cells) was found to be 10 nM.
As usually defined, the EC50 is the concentration needed to bring the measured effect to its halfway point. As for “[D-Tyr6-betaAlal 11-Phe13-Nle14] bombesin(6-14) [dYB]”, the EC50 in assay [2] worked out at 10 nM. Besides, the “affinity for all three human bombesin receptor subtypes” value in assay [3] is reported as “high affinity”.
